Legend:
influenza virus b [1] = assay: Inhibitory activity was determined against Neuraminidase B/Memphis at 1 mM concentration
Neuraminidase = Neuraminidase (Influenza B virus (strain B/Lee/1940), UniProt P03474); assay: Inhibitory activity was determined against Neuraminidase B/Memphis
influenza virus b [2] = assay: Inhibitory activity was determined against Neuraminidase B/Memphis at 0.5 mM concentration

Sequence of Neuraminidase (P03474 whole entry): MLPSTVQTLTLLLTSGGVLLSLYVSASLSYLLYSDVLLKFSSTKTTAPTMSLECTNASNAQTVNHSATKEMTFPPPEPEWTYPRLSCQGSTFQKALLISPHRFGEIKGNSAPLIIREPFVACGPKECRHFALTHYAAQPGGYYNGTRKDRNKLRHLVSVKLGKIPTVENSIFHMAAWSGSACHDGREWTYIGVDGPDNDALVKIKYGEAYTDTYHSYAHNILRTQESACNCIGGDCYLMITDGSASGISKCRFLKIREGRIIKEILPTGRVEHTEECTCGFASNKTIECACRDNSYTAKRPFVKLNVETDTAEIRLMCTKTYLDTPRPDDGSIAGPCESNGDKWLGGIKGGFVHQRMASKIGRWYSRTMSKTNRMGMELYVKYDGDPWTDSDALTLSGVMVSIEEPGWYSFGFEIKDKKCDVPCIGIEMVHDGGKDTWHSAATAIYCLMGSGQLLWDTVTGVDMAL

Structure (SMILES) | IC50 (Neuraminidase) | also measured
CCC(=O)NC[C@H]1[C@H](N)[C@H](C(=O)O)CN1C(=O)N(CC)C(C)C | – | inhibition (influenza virus b [1]): 26%
CCN(C(=O)N1C[C@@H](C(=O)O)[C@@H](N)[C@@H]1CNC(C)=O)C(C)C | 340 µM | –
CCN(C(=O)N1C[C@@H](C(=O)O)[C@@H](N)[C@@H]1CNC(=O)C(F)(F)F)C(C)C [A-192558] | 8 µM | –
CCN(C(=O)N1C[C@@H](C(=O)O)[C@@H](N)[C@@H]1CNS(C)(=O)=O)C(C)C | – | inhibition (influenza virus b [2]): 38%

Source: ChEMBL document CHEMBL1134391, “Design, synthesis, and structural analysis of influenza neuraminidase inhibitors containing pyrrolidine cores” (J Med Chem, 2001)
